According to patent US20080125377A1, “DELIVERY SYSTEM FOR ANTIANGIOGENIC AND ANTIINFLAMMATORY PHARMACEUTICALS AND METHOD OF USE” (priority 2006, published 2008):
“Also recorded” adds a separate entry of the source.

Columns and labels:
[1] = test system: Human retinal endothelial cells (HREC); assay: Network formation assay in Matrigel, human retinal endothelial cells (HREC); type: cell-based; details: 1% FBS-RF6A medium, 20 ng/ml rhVEGF, 24 hours, approximate, read-out: ED50, inhibition of network formation of human retinal endothelial cells in Matrigel
Experimental: Evaluation of Efficacy of BOL-303213-X In Human Retinal Endothelial Cells (HREC) Using the Network Formation Assay in Matrigel.
Objective: This study was conducted to evaluate the ability of a novel tyrosine kinase inhibitor, BOL-303213-X, to prevent vascular endothelial cell network formation in an in vitro angiogenesis model—network formation assay in Matrigel.
Methods: Human retinal vascular endothelial cells were isolated and cultured from human donor eyes and characterized by Dio-Ac-LDL uptake. Cell network formation was evaluated after these cells were cultured in Matrigel in 1% FBS-RF6A medium with 20 ng/ml rhVEGF and various doses of BOL-303213-X (30, 60, 200, 600 and 1200 nM) for 24 hours. Cell isolates and cultures from three separated donors were used. The total cell network areas were computed by an image analysis software.

[2] = test system: human retinal endothelial cells; assay: Vascular endothelial cell proliferation (cell viability assay kit), human retinal endothelial cells; type: cell-based; details: dose-dependent
Experimental: (§1) Objective: The present study was conducted to evaluate the ability of a novel tyrosine kinase inhibitor, BOL-303213-X, to prevent vascular endothelial cell proliferation in vitro using human retinal, choroidal, and dermal microvascular endothelial cells, as well as bovine retinal endothelial cells. Inhibition of outgrowths in a human choroid explant assay was also used to evaluate BOL-303213-X activity in a more complex multi-cellular angiogenesis ex vivo model. Furthermore, caspase-3/7 and lactate dehydrogenase (LDH) activities were also determined following treatment of human retinal and choroidal endothelial cells with BOL-303213-X as a preliminary measure of cytotoxicity. Methods: Human retinal and choroidal vascular endothelial cells were isolated and cultured from human donor eyes. Human dermal microvascular endothelial cells and bovine retinal endothelial cells were purchased from commercial sources. Vascular endothelial cell proliferation was measured by comparing the number of viable cells using a commercial cell viability assay kit. Inhibition of choroid outgrowths was evaluated in a human explant assay. Caspase-3/7 and LDH activities were utilized to assess cytotoxicity.

[3] = test system: human choroidal endothelial cells; assay: Vascular endothelial cell proliferation (cell viability assay kit), human choroidal endothelial cells; type: cell-based; details: dose-dependent
Experimental: as §1

[4] = test system: human dermal microvascular endothelial cells; assay: Vascular endothelial cell proliferation (cell viability assay kit), human dermal microvascular endothelial cells; type: cell-based; details: dose-dependent
Experimental: as §1

[5] = test system: bovine retinal endothelial cells; assay: Vascular endothelial cell proliferation (cell viability assay kit), bovine retinal endothelial cells; type: cell-based; details: dose-dependent
Experimental: as §1

[6] = test system: human choroid explant outgrowths; assay: Human choroid explant outgrowth assay (ex vivo); type: cell-based; details: human choroidal outgrowth assay
Experimental: as §1

[7] = test system: human retinal endothelial cells; assay: Cytotoxicity (caspase-3/7 and LDH activities), confluent human retinal endothelial cells; type: cell-based; details: range of concentrations used for efficacy testing
Experimental: as §1

[8] = test system: human choroidal endothelial cells; assay: Cytotoxicity (caspase-3/7 and LDH activities), confluent human choroidal endothelial cells; type: cell-based; details: range of concentrations used for efficacy testing
Experimental: as §1

[9] = test system: rhVEGF165-induced blood-retinal barrier breakdown; assay: Blood-retinal barrier breakdown induced by rhVEGF165 in pigmented rabbits (vitreous fluorophotometry); type: in vivo
Experimental: (§2) To expand the efficacy observation of BOL-303213-X in non-ocular system, an ocular efficacy study was conducted in rabbits that included ocular observations to evaluate tolerance of intravitreal administration of BOL-303213-X in hydroxypropyl methylcellulose (HPMC). A rabbit model of blood-retinal barrier (BRB) breakdown induced by intravitreal administration of recombinant human vascular endothelial growth factor (rhVEGF) was used. This model mimics pathologic situations such as macular edema, in which VEGF contributes to increased retinal vascular permeability resulting in edema. In this study 30 μg BOL-303213-X in 50 μl of HPMC was given 3 or 5 days before the VEGF challenge with the evaluation of the BRB integrity also at 2 days after the VEGF challenge.
BOL-303213-X/HPMC Suspension: Evaluation of Efficacy in Pigmented Rabbits Using a Model of Blood-Retinal Barrier Breakdown Induced by VEGF.
Purpose: The aim of this study was to evaluate the efficacy of BOL-303213-X (30 μg) in hydroxypropyl methylcellulose (HPMC) suspension in pigmented rabbits using a model of blood-retinal barrier breakdown induced by rhVEGF 165.
(§3) Methods: Eighty four (84) pigmented rabbits were allocated into 8 groups: three groups were given an intravitreal injection (50 μl) of BOL-303213-X (30 μg) in HPMC, three groups were given an intravitreal injection of HPMC vehicle and two groups were given no treatment. The rhVEGF 165 challenge was performed three days after the treatment injection to three groups (BOL-303213-X-treated, vehicle-treated, and untreated). The rhVEGF 165 challenge was also performed at five days after the treatment injection to four groups (BOL-303213-X-treated, vehicle-treated (n=2), and untreated). One group served as control for the tolerability of BOL-303213-X injection. Breakdown of the blood-retinal barrier was evaluated 24 h (one vehicle-treated group) and 48 h (the other six groups) after rhVEGF 165 challenge by fluorescein leakage from retinal vasculature into the vitreous using non-invasive scanning ocular fluorophotometry. Assessment of tolerability was evaluated by slit-lamp examination, laser flare measurements (LFM) of anterior chamber using a laser flare meter, intraocular pressure (IOP) measurements using a pneumotonometer and vitreo-retinal fluorophotometry. These examinations were performed before injection, before the rhVEGF165 challenge and the day of euthanasia. Results: The general behavior of animals was not altered by the treatment. […] No relevant complications were found during the clinical follow-up.

[10] = Ocular tolerability in the rabbit VEGF efficacy study (slit-lamp, laser flare, IOP); type: in vivo
Experimental: as §2, §3

[11] = test system: laser-induced choroidal neovascularization; assay: Laser-induced choroidal neovascularization in cynomolgus monkeys (fluorescein angiography grading); type: in vivo, cynomolgus monkeys (Macaca fascicularis)
Text: BOL-303213-X/HPMC Suspension: Evaluation of Efficacy in Monkeys Using a Laser-Induced Choroidal Neovasuclarization Model.
Purpose: This study was done to qualitatively evaluate the potential inhibitory effect of BOL-303213-X on laser-induced choroidal neovascularization in cynomolgus monkeys when administered biweekly by intravitreal injection beginning at the time of laser treatment.
Methods: Eight cynomolgus monkeys (Macaca fascicularis) were used in this study. The animals were assigned to the study using a computerized procedure designed to achieve body weight balance with respect to groups. The animals were anesthetized with ketamine and xylazine and the eyes dilated with a mydriatic. The macula of both eyes of each animal received laser photocoagulation treatment using a 532 nm diode green laser and slit lamp delivery system and a plano fundus contact lens. This is a standard method for inducing choroidal neovascularization. Nine areas were symmetrically placed in the macula of each eye. The laser parameters included a 75 micron spot size, 0.1 second duration at power settings ranging from 400 to 750 mW. […] Fuorescein angiograms were evaluated according to the following grading system for evidence of excessive permeability (i.e. fluorescein leakage). […]

[12] = Ocular tolerability following a single intravitreal administration in pigmented rabbits; type: in vivo
Experimental: BOL-303213-X In HPMC Suspension. Evaluation of Ocular Tolerability Following a Single Intravitreal Administration in Pigmented Rabbits.
Purpose: The aims of this study were to determine the ocular tolerability and pharmacokinetics of BOL-303213-X in Hydroxy Propyl Methyl Cellulose (HPMC) suspension after a single intravitreal injection at 4 doses: 10, 15, 20 and 30 μg.
Methods: One hundred and two rabbits were allocated into four-dose groups (group 1: 10 μg, group 2: 15 μg, group 3: 20 μg and group 4: 30 μg of BOL-303213-X in HPMC suspension) and one control group (HPMC). Each group was divided in four time-points (15 min, Days 1, 3 and 5) except the control group (one time-point: Day 5). Each animal received an intravitreal injection of test article (50 μl) in the right eye. Tolerability was evaluated by slit lamp examination, anterior chamber inflammation (flare) by laser flare measurements (LFM), intraocular pressure measurements and integrity of the blood retinal barrier (BRB) by vitreous fluorophotometry. These examinations were performed before injection and, on Days 1, 3 and 5. Results: The general behavior of animals was not altered by the treatment. […] No relevant complications were found during the clinical follow-up. […] The blood-retinal barrier was not affected by the different injections. […] There was no difference in IOP between the BOL-303213-X injected and control eyes at any time points.

[13] = Tolerability of intravitreal BOL-303213-X in HPMC in cats; type: in vivo; details: intravitreal 10 μg in HPMC, statement also covers four pharmacokinetic studies, visible aggregates in vitreous in certain studies
[14] = 10-30 μg in HPMC, single intravitreal injection

## CC(C)Cn1c2ccc(Nc3ncccn3)cc2c2c3c(c4c(c21)CCc1nn(C)cc1-4)C(=O)NC3 [BOL-303213-X]
[1]
  EC50: ~180 nM
[2]
  Inhibition of proliferation: inhibited proliferation
[3]
  Inhibition of proliferation: inhibited proliferation
[4]
  Inhibition of proliferation: inhibited proliferation
[5]
  Inhibition of proliferation: inhibited proliferation
[6]
  Inhibition of choroid outgrowths: effective in inhibiting choroid outgrowths
[7]
  Caspase-3/7 activity: no significant increase
  LDH activity: no significant increase
[8]
  Caspase-3/7 activity: no significant increase
  LDH activity: no significant increase
[9]; 30 μg in 50 μl HPMC intravitreal, 3 days before VEGF challenge
  Effect on VEGF-induced retinal vascular permeability / blood-retinal barrier breakdown (in words): significantly reduced; also recorded: effective at blocking
[9]; 30 μg in 50 μl HPMC intravitreal, 3 days before rhVEGF165 challenge, read 48 h after challenge, p=0.04
  Inhibition of vitreous fluorescein leakage vs rhVEGF165 plus HPMC vehicle: 52.7%
[9]; 30 μg in HPMC intravitreal, 3 days before rhVEGF165 challenge, read 48 h after challenge
  Vitreous fluorescein leakage (mean±SD, n=12): 8,458.8±7,067.4
[9]; 30 μg in HPMC intravitreal, 5 days before rhVEGF165 challenge
  Vitreous fluorescein leakage (mean±SD, n=12): 15,228.2±10,364.6
[9]; 30 μg in HPMC intravitreal, 5 days before rhVEGF165 challenge, trend, not statistically significant (p>0.05)
  Inhibition of vitreous fluorescein leakage vs vehicle: 57.7%
[10]; 30 μg in 50 μl HPMC intravitreal, except some eyes with blurred vitreous
  Ocular tolerance observations: no observed tolerance concerns
[10]; 30 μg in HPMC, intravitreal
  Body weights of the animals: within a normal range
  General behavior of animals: not altered
[10]; 30 μg in HPMC, single intravitreal injection
  Toxicity by slit-lamp examination, laser flare and IOP measurements: no evidence of toxicity
[10]; HPMC suspension at 30 μg-dose, normal pigmented rabbits
  Overall safety conclusion: appeared to be safe
[11]; 45 μg in HPMC intravitreal after laser and two weeks post-laser, 2, 3 and 4 weeks post-laser
  Percent of grade IV lesions vs HPMC-vehicle contralateral eye: consistently lower
[11]; 45 μg in HPMC suspension, injected after laser challenge
  Inhibition of choroidal neovascularization (in words): effective at inhibiting choroidal neovascularization
[12]; 10, 15, 20, 30 μg in HPMC, single intravitreal injection 50 μl
  Toxicity by clinical examination, laser flare and IOP measurements: no evidence of toxicity
[12]; 10-30 μg in HPMC suspension
  Clinical observation in the vitreous following the intravitreal injection: small aggregate of drug precipitates
[12]; [14]
  Blood-retinal barrier integrity (vitreous fluorophotometry): not affected
  Body weights of the animals: within a normal range
  General behavior of animals: not altered
[12]; 1 day after the injection, not dose-dependent
  Anterior chamber inflammation: transient anterior inflammation
[12]; Day 5, at least 1 animal of each group (control group included)
  Animals with some inflammatory cells in the vitreous cavity at fundus examination: 9 rabbits out of 30
[12]; HPMC suspension at 10, 15, 20 and 30 μg-doses, normal pigmented rabbit
  Overall safety conclusion: appeared to be safe
[12]; any time points
  IOP, injected vs control eyes: no difference
[13]
  Ocular tolerability: no major ocular tolerance concerns
